Reference: ChEMBL document CHEMBL1201862, “PubChem BioAssay data set” (2004)
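Dose response: 5 concentrations. Exposure: 48 h. Format: 96-well plates. Endpoint: linear interpolation; highest concentration if not reached. The concentration for 50% growth inhibition is given as GI50.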 Active and inactive are the calls of the source. Rule as the data show it: active = GI50 up to about 1.1 µM and inactive = higher.

Tests used:
Assay in all cases: inhibition of tumour cell growth, NCI panel, 48 h
CCRF-CEM = system: CCRF-CEM
HCT-116 = system: HCT-116
UACC-257 = system: UACC-257
A549 = system: A549
DMS-273 = system: DMS-273
K562 = system: K562
SK-MEL-5 = system: SK-MEL-5
DLD-1 = system: DLD-1
OVCAR-8 = system: OVCAR-8
SK-MEL-28 = system: SK-MEL-28
SF-268 = system: SF-268
Malme-3M = system: Malme-3M
KM12 = system: KM12
SF-295 = system: SF-295
ACHN = system: ACHN
MOLT-4 = system: MOLT-4
COLO 205 = system: COLO 205
A498 = system: A498
HCC 2998 = system: HCC 2998
RXF 393 = system: RXF 393
TK-10 = system: TK-10
NCI-H460 = system: NCI-H460
NCI-H23 = system: NCI-H23
SNB-78 = system: SNB-78
HL-60 = system: HL-60
EKVX = system: EKVX
SW-620 = system: SW-620
SF-539 = system: SF-539
SR = system: SR
CAKI-1 = system: CAKI-1
IGROV-1 = system: IGROV-1
HOP-18 = system: HOP-18
XF498 = system: XF498
SN12C = system: SN12C
HOP-92 = system: HOP-92
SNB-19 = system: SNB-19
UO-31 = system: UO-31
OVCAR-4 = system: OVCAR-4
SNB-75 = system: SNB-75
NCI-H226 = system: NCI-H226
HT-29 = system: HT-29
RPMI-8226 = system: RPMI-8226
OVCAR-5 = system: OVCAR-5
LOX IMVI = system: LOX IMVI
M14 = system: M14
U-251 = system: U-251
LXFL 529 = system: LXFL 529
SK-MEL-2 = system: SK-MEL-2
HCT-15 = system: HCT-15
DMS-114 = system: DMS-114
MDA-MB-435 = system: MDA-MB-435
OVCAR-3 = system: OVCAR-3
MDA-MB-231 = system: MDA-MB-231
DU-145 = system: DU-145
HOP-62 = system: HOP-62
MCF7 = system: MCF7
786-0 = system: 786-0
MDA-N = system: MDA-N
Hs-578T = system: Hs-578T
NCI-H522 = system: NCI-H522
BT-549 = system: BT-549
SK-OV-3 = system: SK-OV-3
KM-20L2 = system: KM-20L2
PC-3 = system: PC-3
NCI/ADR-RES = system: NCI/ADR-RES
UACC-62 = system: UACC-62
T47D = system: T47D

CCCn1cc2c(O)nc(SC)nc2n1
GI50 (CCRF-CEM): > 100000 nM (inactive) | GI50 (HCT-116): > 100000 nM (inactive) | GI50 (UACC-257): > 100000 nM (inactive) | GI50 (A549): > 100000 nM (inactive) | GI50 (DMS-273): > 100000 nM (inactive) | GI50 (K562): > 10000 nM (inactive) | GI50 (SK-MEL-5): > 100000 nM (inactive) | GI50 (DLD-1): > 100000 nM (inactive) | GI50 (OVCAR-8): > 100000 nM (inactive) | GI50 (SK-MEL-28): > 100000 nM (inactive) | GI50 (SF-268): 59000 nM (inactive) | GI50 (Malme-3M): > 100000 nM (inactive) | GI50 (KM12): > 100000 nM (inactive) | GI50 (SF-295): > 100000 nM (inactive) | GI50 (ACHN): > 100000 nM (inactive) | GI50 (MOLT-4): > 100000 nM (inactive) | GI50 (COLO 205): > 100000 nM (inactive) | GI50 (A498): 59600 nM (inactive) | GI50 (HCC 2998): > 100000 nM (inactive) | GI50 (RXF 393): > 100000 nM (inactive) | GI50 (TK-10): > 100000 nM (inactive) | GI50 (NCI-H460): > 100000 nM (inactive) | GI50 (NCI-H23): > 100000 nM (inactive) | GI50 (SNB-78): 32300 nM (inactive) | GI50 (HL-60): > 100000 nM (inactive) | GI50 (EKVX): > 100000 nM (inactive) | GI50 (SW-620): > 100000 nM (inactive) | GI50 (SF-539): > 100000 nM (inactive) | GI50 (SR): 57300 nM (inactive) | GI50 (CAKI-1): > 100000 nM (inactive) | GI50 (IGROV-1): > 100000 nM (inactive) | GI50 (HOP-18): 28800 nM (inactive) | GI50 (XF498): 45300 nM (inactive) | GI50 (SN12C): > 100000 nM (inactive) | GI50 (HOP-92): > 100000 nM (inactive) | GI50 (SNB-19): > 100000 nM (inactive) | GI50 (UO-31): 72600 nM (inactive) | GI50 (OVCAR-4): 91400 nM (inactive) | GI50 (SNB-75): 41600 nM (inactive) | GI50 (NCI-H226): 19900 nM (inactive) | GI50 (HT-29): > 100000 nM (inactive) | GI50 (RPMI-8226): > 100000 nM (inactive) | GI50 (OVCAR-5): 79400 nM (inactive) | GI50 (LOX IMVI): > 100000 nM (inactive) | GI50 (M14): > 100000 nM (inactive) | GI50 (U-251): > 100000 nM (inactive) | GI50 (LXFL 529): > 100000 nM (inactive) | GI50 (SK-MEL-2): > 100000 nM (inactive) | GI50 (HCT-15): > 100000 nM | GI50 (DMS-114): 91600 nM (inactive)

COc1cc2c(c(OC)c1OC)-c1ccc(SC)c(=O)cc1C(NC(=O)c1ccccc1)CC2 (stereo unspecified)
GI50 (MDA-MB-435): < 10 nM (active) | GI50 (CCRF-CEM): < 10 nM (active) | GI50 (HCT-116): < 10 nM (active) | GI50 (UACC-257): 526 nM (active) | GI50 (A549): < 10 nM (active) | GI50 (DMS-273): < 10 nM (active) | GI50 (K562): < 10 nM (active) | GI50 (SK-MEL-5): < 10 nM (active) | GI50 (OVCAR-3): < 10 nM (active) | GI50 (DLD-1): < 10 nM (active) | GI50 (OVCAR-8): < 10 nM (active) | GI50 (SK-MEL-28): 305 nM (active) | GI50 (SF-268): < 10 nM (active) | GI50 (Malme-3M): < 10 nM (active) | GI50 (MDA-MB-231): < 10 nM (active) | GI50 (DU-145): < 10 nM (active) | GI50 (KM12): < 10 nM (active) | GI50 (SF-295): < 10 nM (active) | GI50 (ACHN): < 10 nM (active) | GI50 (MOLT-4): < 10 nM (active) | GI50 (COLO 205): < 10 nM (active) | GI50 (HOP-62): < 10 nM (active) | GI50 (MCF7): < 10 nM (active) | GI50 (A498): < 10 nM (active) | GI50 (786-0): < 10 nM (active) | GI50 (HCC 2998): < 10 nM (active) | GI50 (RXF 393): 44.4 nM (active) | GI50 (MDA-N): < 10 nM (active) | GI50 (TK-10): 240 nM (active) | GI50 (Hs-578T): < 10 nM (active) | GI50 (NCI-H460): < 10 nM (active) | GI50 (NCI-H23): 10.7 nM (active) | GI50 (SNB-78): < 10 nM (active) | GI50 (HL-60): < 10 nM (active) | GI50 (EKVX): 21200 nM (inactive) | GI50 (SW-620): < 10 nM (active) | GI50 (SF-539): 11.8 nM (active) | GI50 (NCI-H522): < 10 nM (active) | GI50 (BT-549): 15600 nM (inactive) | GI50 (SK-OV-3): 27 nM (active) | GI50 (SR): < 13.7 nM (active) | GI50 (CAKI-1): < 10 nM (active) | GI50 (KM-20L2): < 10 nM (active) | GI50 (IGROV-1): < 10 nM (active) | GI50 (HOP-18): 77100 nM (inactive) | GI50 (XF498): < 60.1 nM (active) | GI50 (PC-3): < 10 nM (active) | GI50 (SN12C): < 10 nM (active) | GI50 (HOP-92): 11.9 nM (active) | GI50 (SNB-19): < 10 nM (active) | GI50 (NCI/ADR-RES): 10.3 nM (active) | GI50 (UO-31): 272 nM (active) | GI50 (OVCAR-4): 1450 nM (inactive) | GI50 (SNB-75): 167 nM (active) | GI50 (NCI-H226): 46.5 nM (active) | GI50 (HT-29): < 10 nM (active) | GI50 (RPMI-8226): < 10 nM (active) | GI50 (OVCAR-5): 303 nM (active) | GI50 (LOX IMVI): < 10 nM (active) | GI50 (UACC-62): < 10 nM (active) | GI50 (M14): < 10 nM (active) | GI50 (U-251): < 10 nM (active) | GI50 (LXFL 529): < 10 nM (active) | GI50 (SK-MEL-2): < 10 nM (active) | GI50 (HCT-15): < 10 nM | GI50 (T47D): 86300 nM (inactive)
